# The source made the active and inactive calls. The rule behind the calls is not given here.
# Legend:
# [1] = system: P388; test: Antitumor activity against mouse P388 cells xenografted in mouse assessed as increase in life span at 50 mg/kg/day, ip after 9 days; assay type: functional; details: route intraperitoneal
# [2] = system: L1210; test: Cytotoxicity against mouse L1210 cells; assay type: functional; details: for IC50: Mus musculus
# [3] = system: P388; test: Antitumor activity against mouse P388 cells xenografted in mouse assessed as increase in life span at 6.3 mg/kg/day, ip after 9 days; assay type: functional; details: route intraperitoneal
# [4] = system: P388; test: Antitumor activity against mouse P388 cells xenografted in mouse assessed as increase in life span at 3.1 mg/kg/day, ip after 9 days; assay type: functional; details: route intraperitoneal
# [5] = system: P388; test: Antitumor activity against mouse P388 cells xenografted in mouse assessed as increase in life span at 12.5 mg/kg/day, ip after 9 days; assay type: functional; details: route intraperitoneal
# [6] = system: B16; test: Antitumor activity against mouse B16 cells xenografted in mouse assessed as increase in life span at 0.5 to 1 mg/kg/day, ip after 9 days; assay type: functional; details: route intraperitoneal
# [7] = system: P388; test: Antitumor activity against mouse P388 cells xenografted in mouse assessed as increase in life span at 1 mg/kg/day, ip after 9 days; assay type: functional; details: route intraperitoneal
# [8] = system: L1210; test: Antitumor activity against mouse L1210 cells xenografted in mouse assessed as increase in life span at 1 mg/kg/day, ip after 9 days; assay type: functional; details: route intraperitoneal
# [9] = system: L1210; test: Inhibition of DNA synthesis in mouse L1210 cells; assay type: functional; details: read-out: ID50 (the source's name)
# [10] = system: L1210; test: Inhibition of RNA synthesis in mouse L1210 cells; assay type: functional; details: read-out: ID50 (the source's name)
# [11] = system: L1210; test: Inhibition of protein synthesis in mouse L1210 cells; assay type: functional, cell-based
# [12] = system: L1210; test: Inhibition of RNA synthesis in mouse L1210 cells at 10 nmole/ml; assay type: functional
# [13] = system: B16; test: Antitumor activity against mouse B16 cells xenografted in mouse assessed as increase in life span at 12 mg/kg/day, ip after 9 days; assay type: functional; details: route intraperitoneal
# [14] = system: P388; test: Antitumor activity against mouse P388 cells xenografted in mouse assessed as increase in life span at 25 mg/kg/day, ip after 9 days; assay type: functional; details: route intraperitoneal
# [15] = system: P388; test: Antitumor activity against mouse P388 cells xenografted in mouse assessed as increase in life span at 70 mg/kg/day, ip after 9 days; assay type: functional; details: route intraperitoneal
# [16] = system: P388; test: Antitumor activity against mouse P388 cells xenografted in mouse assessed as increase in life span at 10 mg/kg/day, ip after 9 days; assay type: functional; details: route intraperitoneal
# [17] = system: B16; test: Antitumor activity against mouse B16 cells xenografted in mouse assessed as increase in life span at 10 mg/kg/day, ip after 9 days; assay type: functional; details: route intraperitoneal
# [18] = L1210, read-out: ID50 (the source's name)
compound,measurement,setting,value
COC(=O)[C@@H]1c2cc3c(c(O)c2[C@@H](N(C)C)C[C@]1(C)O)C(=O)c1c(O)cc2c(c1C3=O)O[C@@H]1O[C@@]2(C)[C@H](O)[C@@H](N(C)C)[C@@H]1O,Activity,[1],54%
CCCO[C@H]1C[C@@](C)(O)Cc2cc3c(c(O)c21)C(=O)c1c(O)cc2c(c1C3=O)O[C@@H]1O[C@@]2(C)[C@H](O)[C@@H](N(C)C)[C@@H]1O,IC50,"[2]; L1210, read-out: ID50",0.1 µg/mL
same,Activity,[3],34%
CCCO[C@H]1C[C@](C)(O)Cc2cc3c(c(O)c21)C(=O)c1c(O)cc2c(c1C3=O)O[C@@H]1O[C@@]2(C)[C@H](O)[C@@H](N(C)C)[C@@H]1O,IC50,"[2]; L1210, read-out: ID50",0.33 µg/mL
same,Activity,[4],50%
Cc1ccc2c(O)c3c(cc2c1)C(=O)c1c2c(cc(O)c1C3=O)[C@@]1(C)O[C@@H](O2)[C@@H](O)[C@H](N(C)C)[C@H]1O [NOGARENE],ID95,[2],370 nM
same,IC50,[2]; [18],220 nM
same,Activity,[5],17%
COC(=O)[C@@H]1c2cc3c(c(O)c2[C@@H](O[C@@H]2O[C@@H](C)[C@H](OC)[C@@](C)(OC)[C@H]2OC)C[C@]1(C)O)C(=O)c1c(O)cc2c(c1C3=O)O[C@@H]1O[C@@]2(C)[C@H](O)[C@@H](N(C)C)[C@@H]1O [NOGALAMYCIN],Activity,[6],71%
same,ID95,[2],0.18 µg/mL
same,IC50,"[2]; L1210, read-out: ID50",0.078 µg/mL
same,Activity,[7],49%
same,Activity,[8],30%
same,IC50,[9],3300 nM
same,IC50,[10],400 nM
same,Activity,[11],inactive
same,inhibition (INH),[12],99.9%
CCO[C@H]1C[C@](C)(O)Cc2cc3c(c(O)c21)C(=O)c1c(O)cc2c(c1C3=O)O[C@@H]1O[C@@]2(C)[C@H](O)[C@@H](N(C)C)[C@@H]1O,Activity,[13],34%
same,IC50,"[2]; L1210, read-out: ID50",0.43 µg/mL
same,IC50,[9],3200 nM
same,IC50,[10],800 nM
CN[C@H]1C[C@](C)(O)[C@H](C(=O)OC)c2cc3c(c(O)c21)C(=O)c1c(O)cc2c(c1C3=O)O[C@@H]1O[C@@]2(C)[C@H](O)[C@@H](N(C)C)[C@@H]1O,Activity,[14],58%
CCCO[C@H]1C[C@@](C)(O)[C@H](C(=O)OC)c2cc3c(c(O)c21)C(=O)c1c(O)cc2c(c1C3=O)O[C@@H]1O[C@@]2(C)[C@H](O)[C@@H](N(C)C)[C@@H]1O,IC50,"[2]; L1210, read-out: ID50",0.3 µg/mL
CCO[C@H]1C[C@@](C)(O)[C@H](C(=O)OC)c2cc3c(c(O)c21)C(=O)c1c(O)cc2c(c1C3=O)O[C@@H]1O[C@@]2(C)[C@H](O)[C@@H](N(C)C)[C@@H]1O,IC50,"[2]; L1210, read-out: ID50",0.15 µg/mL
same,Activity,[5],70%
COC(=O)c1c(C)ccc2c(O)c3c(cc12)C(=O)c1c2c(cc(O)c1C3=O)[C@@]1(C)O[C@@H](O2)[C@@H](O)[C@H](N(C)C)[C@H]1O [NOGALARENE],Activity,[15],50%
same,ID95,[2],580 nM
same,IC50,[2]; [18],240 nM
COC(=O)[C@@H]1c2cc3c(c(O)c2[C@@H](OC(C)=O)C[C@]1(C)O)C(=O)c1c(O)cc2c(c1C3=O)O[C@@H]1O[C@@]2(C)[C@H](O)[C@@H](N(C)C)[C@@H]1O,Activity,[16],87%
COC(=O)[C@@H]1c2cc3c(c(O)c2[C@@H](OC)C[C@@]1(C)O)C(=O)c1c(O)cc2c(c1C3=O)O[C@@H]1O[C@@]2(C)[C@H](O)[C@@H](N(C)C)[C@@H]1O,Activity,[17],35%
same,Activity,[14],98%
same,IC50,"[2]; L1210, read-out: ID50",0.13 µg/mL
same,IC50,[9],7000 nM
same,IC50,[10],7800 nM
COC(=O)[C@@H]1c2cc3c(c(O)c2CC[C@]1(C)O)C(=O)c1c(O)cc2c(c1C3=O)O[C@@H]1O[C@@]2(C)[C@H](O)[C@@H](N(C)C)[C@@H]1O,Activity,[1],27%
same,ID95,[2],1510 nM
same,IC50,[2]; [18],580 nM
